Results reported in ChEMBL document CHEMBL1146141, “Synthesis of constrained ceramide analogs and their potent antileukemic activities” (Bioorg Med Chem Lett, 2006).
The source made the active and inactive calls. The rule behind the calls is not given here.

System: HL-60
Test: Antileukemic activity against human leukemia HL60 cells at 20 uM
Format: functional, cell-based

Compound: CCCCCCCCCCCCC/C=C/[C@@H](O)[C@@H]1COC(=O)N1C(=O)CC
- Activity: Active

Compound: CCCCCCCCCCCCC/C=C/[C@@H](O)[C@@H]1COC(=O)N1C(=O)c1ccccc1
- Activity: Active

Compound: CCCCCCCCCCCCC/C=C/[C@@H](O)[C@@H]1COC(=O)N1C(=O)CCCCCCCCCCCCCCC
- Activity: inactive
